Experimental data taken from patent US20250032425A1, “FIRST IN CLASS USE OF ESTROGEN RECEPTOR BETA AGONISTS IN TREATING ANGELMAN SYNDROME AND RELEVANT AUTISM SPECTRUM DISORDERS” (BROWN UNIVERSITY, priority 2023, published 2025).
“Also recorded” adds a separate entry of the source.

Experiments:
Format in all cases: cell-based, human
[1] = tested on: AS iOPCs differentiated into iOLs; experiment: Differentiation of AS patient-derived iOPCs into iOLs (MAG, CNPase, MBP); conditions: AC-186 10 μM or clemastine 2.5 μM, 72 hours
[2] = tested on: UBE3A-deficient iOPCs and iOLs; experiment: Oligodendrocyte differentiation of UBE3A-deficient iOPCs into iOLs (immunoblotting of Ki67, MAG, CNPase); conditions: UBE3A-deficient iOLs; AC-186 (10 µM), clemastine (2.5 μM); 3 days
Description: FIG. 25C: Immunoblotting was conducted to assess the impact of UBE3A depletion on ESR-β expression during oligodendrocyte differentiation. Protein levels of ESR-β in UBE3A-deficient iOPCs and subsequently differentiated iOLs were quantified, normalized against the loading control GAPDH, and expressed relative to the iOPC+siNC control condition (set at 1.0). […] Levels of Ki67 and Myelin Associated Glycoprotein (MAG) were measured in UBE3A-deficient iOPCs and iOLs differentiated from them, normalized against GAPDH, and compared to the iOPC+siNC condition. n=4 experiments. FIG. 25E: Immunoblotting to examine the role of UBE3A for OPC self-renewal and oligodendrocyte differentiation across different developmental stages. Expression of maturation and myelination markers (MBP, MAG, PLP1, CNPase) was quantified following UBE3A depletion timed from iOPCs to pre-iOLs, normalized against TUBB1. and compared to the iOPC+siNC control condition (set at 1.0). n=4 experiments.

UBE3A-deficient iOPCs = experiment: Ki67 (and PCNA) immunoblotting in UBE3A-knockdown iOPCs: compound screen and rescue of proliferation; conditions: for impact of UBE3A loss on OPC proliferation (FIG. 18F, 19G): ERβ activators of different structural classes; for effect of AC-186 to enhance proliferation of iOPCs with UBE3A knockdown (Ki67): MEK inhibitor with AC-186 co-treatment (10 μM, 24 hours); for restoration of Ki67 expression in compound screen: Ki67 immunoblotting normalized to siNC=1.0
Description: Given the scarcity of knowledge regarding UBE3A function in oligodendrocyte biology, a comprehensive exploration of various cellular functions was performed, leveraging the high-throughput capabilities of the iPSC-based methodology (e.g., as described herein). We selected over 45 compounds with known targeted cellular actions (Table 1). These were chosen based on their documented effects on UBE3A, their ability to promote oligodendrocyte development and myelination, or their protective 10 roles in neural tissue. UBE3A expression was modulated using siRNA, achieving a controlled reduction that decreased OPC proliferation by approximately 50%, as evidenced by Ki67 protein levels.
iPSC Culturing and Generation of Induced Human Brain Cells Including Oligodendroglia, Neurons (IN), Astrocytes (iAs) and Microglia (iMG) The generation of iPSC-derived human oligodendrocyte precursor cells (iOPCs) was carried out according to a previously published protocol by Vulakh and Yang et al., 2023 (Characterizing the Neuron-Glial Interactions by the Co-cultures of Human iPSC-Derived Oligodendroglia and Neurons. Methods Mol. Biol. 2683), which itself was a modification of an earlier protocol by Assetta et al., 2020 (Generation of Human Neurons and Oligodendrocytes from Pluripotent Stem Cells for Modeling Neuron-Oligodendrocyte Interactions. J Vis Exp.). The process began with the control iPSCs, which is a well-characterized control reference line acquired from the NIH-funded iPSC Neurodegenerative Disease Initiative (INDI, (Ramos, D. M., Skarnes, W. C., Singleton, A. B., Cookson, M. R., and Ward, M. E. (2021). Tackling neurodegenerative diseases with genomic engineering: A new stem cell initiative from the NIH. Neuron 109, 1080-1083. 10.1016/j.neuron.2021.03.022)), distributed by the Jackson Laboratory. These iPSCs were maintained in mTeSR plus medium (StemCell Technologies, #05825) and expanded in Stem Flex medium (Fisher Scientific. #A3349401) for the induction of neural progenitor cells (INPC). The iNPCs were derived by treating iPSCs with a commercial SMAD inhibitor medium (StemCell Technologies, #08582) for 7 days (Week 1). Subsequently, NPCs were further induced to become OPCs by a 7-day incubation (Week 2) with a chemically-defined OPC medium: DMEM/F12 medium (Thermo Fisher, #11320033) supplemented by 10 ng/ml PDGF-AA (R&D Systems, #221-AA-025), 1 μM SAG (Tocris, #4366), […] N-Acetyl-Cysteine (Millipore Sigma, #A9165-5G), 20 ng/mL bFGF (R&D Systems, #233-FB-025/CF), 1% N2 supplement (Thermo Fisher, #17502048), and 1% B27 supplement (Thermo Fisher, #17504044). […] The additional incubation with OL medium for 7-14 days (Week 4-5) yielded mature, myelinating OLs.
(§1) The siRNAs targeting UBE3A (Thermo Fisher, #4390815 and #4390816), estrogen receptors (Thermo Scientific #145909 for ESRβ, #145539 for ESRα, and #4390824 for GPER), and negative control (Thermo Scientific, #AM4615) were obtained commercially. The 10-20 nM final concentration was used with Lipofectamine RNAiMAX transfection reagent (Thermo Scientific #13778075) and incubated for at least 48 hours before the treatments of therapeutic compounds or other reagents.
Cells were collected by fast spin down in centrifuge tubes before lysis in RIPA buffer (ThermoFisher, #89901) supplemented with proteinase inhibitor cocktail (Sigma-Aldrich, #5892791001) on ice. Lysates were then spun down at 15000 rpm for 10 mins, the supernatant was collected and mixed with 4× Laemmle sample buffer (Bio-Rad, #1610747) and cooked 10 mins before SDS-PAGE and transferred with Bio-Rad fast transfer system, the membranes were blocked for one hour in 1× Tris Buffered Saline (TBS) with 1% Casein buffer (Bio-Rad, #1610782) and incubated with primary antibodies overnight at 4 degrees. […]

[3] = tested on: ERK/MAPK signaling pathway; experiment: ERK/MAPK and S6 activation in iOPCs by immunoblotting (phosphorylated to total ratio); conditions: MEK inhibitor added to UBE3A-depleted OPCs with AC-186
Description: FIGS. 20A-20E depict the identification of ESR-β signaling pathway in regulating OPC proliferation impaired by UBE3A depletion. FIG. 20A: Immunofluorescence to track estrogen receptor (ESR) expression in OPCs, by staining of all 3 ESRs, ESR-α, ESR-β and GPER (top panels), in iOPCs co-labeled with UBE3A (middle panels) and DAPI; scale bar, 100 μm. […] FIG. 20B: Immunoblotting to assess OPC expression of individual ESRs, by analyzing protein levels of ESR-α, ESR-β and GPER in iOPCs treated with siNC or siUBE3A, normalized to GAPDH and expressed relative to the siNC condition (set as 1.0). After treatment with siUBE3A, expression of ESR-β was decreased, while expression of GPER was increased. n=5-6 experiments. FIG. 20C: The activation of the ERK/MAPK signaling pathway in OPCs, particularly downstream of ESR-β, was analyzed in iOPCs subjected to 6 knockdown conditions: siNC, siUBE3A, siESRα, siESRβ, and combinations of siUBE3A with siESRα or siESRβ. These were followed by treatment with vehicle control or the ESR-β agonist AC-186 (10 μM, 30 min). The activation of ERK and its substrate S6 was determined by the ratio of phosphorylated to total ERK and S6 levels, adjusted relative to the vehicle control group (standard value of 1.0). ERK phosphorylation and S6 phosphorylation was decreased in cells treated with siESRβ, or siESRβ and siUBE3A combined. n=3 experiments. FIG. 20D: Immunoblotting to evaluate the role of ERK/MAPK activation in the restoration of OPC proliferation following ESR-β activation, with the addition of ERK phosphorylation inhibitors U0126 or PD98059 to UBE3A-depleted OPCs, with or without AC-186 co-treatment (10 μM. 24 hours). The quantification of Ki67 expression and UBE3A levels, being normalized to β-tubulin (TUBB1) and compared to the siNC condition (value of 1.0). n=5 experiments. FIG. 20E: A schematic depicting the regulatory role of ESR-β signaling pathway in OPC proliferation, identified by combining genetic knockdown techniques and pharmacological interventions. Activation of ESR-β selectively triggers the ERK/MAPK pathway, as shown by ERK phosphorylation and the ERK substrate S6 activation, essential for cell proliferation. […] As applicable: statistical significance was determined using One-way ANOVA followed by post-hoc comparisons, with selected comparisons presented. Significance levels marked as *p<0.05. ** p<0.005. *** p<0.001. **** p<0.0001, ns not significant, across relevant comparisons.
as §1
Cells were collected by fast spin down in centrifuge tubes before lysis in RIPA buffer (ThermoFisher, #89901) supplemented with proteinase inhibitor cocktail (Sigma-Aldrich, #5892791001) on ice. Lysates were then spun down at 15000 rpm for 10 mins, the supernatant was collected and mixed with 4× Laemmle sample buffer (Bio-Rad, #1610747) and cooked 10 mins before SDS-PAGE and transferred with Bio-Rad fast transfer system, the membranes were blocked for one hour in 1× Tris Buffered Saline (TBS) with 1% Casein buffer (Bio-Rad, #1610782) and incubated with primary antibodies overnight at 4 degrees. After 3 times washing in TBST washing buffers (ThermoFisher, #28352), the membranes were incubated with HRP conjugated antibodies and developed with Clarity Max™ Western ECL Substrate (Bio-Rad, #1705062) before being filmed in the iBright imaging system.

[4] = tested on: iOPCs expressing Cas9 and a sgRNA targeting UBE3A; experiment: EdU incorporation in iOPCs with CRISPR/Cas9 UBE3A depletion (Lenti-sgUBE3A #1-3); conditions: 10 μM; any of the sgRNAs
Description: The sgRNAs targeting UBE3A, and negative control were obtained from Applied Biological Materials Inc. Targeting sgRNA sequences against UBE3A are: sgRNA1, […]; sgRNA2, […]; sgRNA3, […]. These sgRNAs were integrated into the backbone of the negative control pLenti-U6-sgRNA-SFFV-Cas9-2A-Puro. All constructs were packaged into lentiviruses and concentrated by Lenti-X Concentrator (Takara Bio #631231). In each experiment, 5-10 μl of concentrated virus was administered into ˜70% confluent iOPCs cultures in 6-well plates. One day post-lentiviral transduction, iOPC cultures were treated with approximately 5 μg/ml Puromycin to isolate those iOPCs which are expressing Cas9/sgRNAs. Following a day of selection, the iOPCs were then seeded on gelatin-coated coverslips placed in 24-well plates at a density of 100,000 cells per well. After another day allowed for cell stabilization, treatment with either the vehicle control (DMSO), AC-186, DPN, or LY500307 commenced at a standard concentration of 10 μM. A final 24-hour period after this treatment saw the cells exposed to […] for three hours, preparing them for subsequent immunofluorescence staining.
The EdU labeling kit from ThermoFisher Scientific (#C10637) was used to trace cell proliferation by incubating iOPCs with 2 μM EdU for three hours before fixation. Following EdU incorporation, cells were fixed in 4% paraformaldehyde, blocked with normal serum, and stained with primary antibodies, Rabbit anti-Ki67 and Mouse anti-UBE3A. These steps were conducted according to the manual of the labeling kit and also detailed immunofluorescence staining protocols described below, to ensure specific detection of the proliferation marker Ki67 and the ubiquitin-protein ligase UBE3A in the cells for subsequent imaging analysis.

[5] = siUBE3A cells, 10 μM, 24 hours, normalized to GAPDH

CN1CCC[C@@H]1CCO[C@](C)(c1ccccc1)c1ccc(Cl)cc1 [clemastine, Clemastine, reference compound]
oligodendrocyte differentiation (MAG, CNPase, MBP) [1]: positively influenced the differentiation process | oligodendrocyte differentiation (MAG), FIG. 25D [2]: enhanced differentiation

O=C1C[C@@H](c2ccc(O)cc2)Oc2cc(O)ccc21 [Liquiritigenin, reference compound]
impact of UBE3A loss on OPC proliferation (FIG. 18F, 19G) (UBE3A-deficient iOPCs): similarly mitigated the impact of UBE3A loss on OPC proliferation

Oc1ccc(-c2nc3cc(O)cc(Br)c3o2)cc1 [WAY-200070, reference compound]
impact of UBE3A loss on OPC proliferation (FIG. 18F, 19G) (UBE3A-deficient iOPCs): similarly mitigated the impact of UBE3A loss on OPC proliferation

N#CC(=C(/N)Sc1ccccc1N)/C(C#N)=C(\N)Sc1ccccc1N [U0126, reference compound]
effect of AC-186 to enhance proliferation of iOPCs with UBE3A knockdown (Ki67) (UBE3A-deficient iOPCs): reduced | ERK/MAPK pathway activation stimulated by AC-186 [3]: inhibited

Oc1ccc([C@@H]2Oc3ccc(O)cc3[C@@H]3CCC[C@@H]32)cc1 [LY500307, reference compound]
number of EdU+ cells [4]: increased the number of EdU+ cells | impact of UBE3A loss on OPC proliferation (FIG. 18F, 19G) (UBE3A-deficient iOPCs): similarly mitigated the impact of UBE3A loss on OPC proliferation | Ki67 expression (FIG. 19G) (UBE3A-deficient iOPCs; [5]): increased expression | PCNA expression (FIG. 19G) (UBE3A-deficient iOPCs; [5]): increased expression

FGF: fibroblast growth factor; bFGF, human recombinant
restoration of Ki67 expression in compound screen (UBE3A-deficient iOPCs; 10 μM, 24 hours): restored; also recorded: effectively normalized proliferation levels; also recorded: Statistically significant; also recorded: capable of restoring Ki67 expression

COc1cccc(-c2cc(=O)c3ccccc3o2)c1N [PD98059, reference compound]
effect of AC-186 to enhance proliferation of iOPCs with UBE3A knockdown (Ki67) (UBE3A-deficient iOPCs): reduced | ERK/MAPK pathway activation stimulated by AC-186 [3]: inhibited

B1: BDNF: brain-derived neurotrophic factor, human recombinant; neurotrophin that belongs to NGF-beta family (protein, UniProt P23560 19-247, looked up)
Neurotrophic factor BDNF …: APMKEANIRGQGGLAYPGVRTHGTLESVNGPKAGSRGLTSLADTFEHVIEELLDEDQKVRPNEENNKDADLYTSRVMLSSQVPLEPPLLFLLEEYKNYLDAANMSMRVRRHSDPARRGELSVCDSISEWVTAADKKTAVDMSGGTVTVLEKVPVSKGQLKQYFYETKCNPMGYTKEGCRGIDKRHWNSQCRTTQSYVRALTMDSKKRIGWRFIRIDTSCVCTLTIKRGR
restoration of Ki67 expression in compound screen (UBE3A-deficient iOPCs; 10 μM, 24 hours): restored; also recorded: effectively normalized proliferation levels; also recorded: Statistically significant; also recorded: capable of restoring Ki67 expression
